Reference: the SangsterLogP compilation

Assay: method code SF-AS, from DOI: 10.1002/zfch.19790190911

logP	Compound
-0.11	CCCCC(=O)NN
0.03	CCCCCCCCCC(=O)NN
-0.92	Cc1nnc(N)o1
-0.31	CC(C)CC(=O)NN
-0.63	CC(C)C(=O)NN
-1.44	Nc1nnco1
-0.33	CCC(C)C(=O)NN (stereo not drawn)
-0.35	CC(C)(C)C(=O)NN
1.43	CCCCCCc1nnc(N)o1
-0.62	CCCC(=O)NN
0.73	CCCCCCCc1nnc(N)o1
1.19	Nc1nnc(CCc2ccccc2)o1

Second part, the compound before the results:

Compound	logP
Nc1nnc(Cc2ccccc2)o1	0.95
CCCc1nnc(N)o1	0.23
NNC=O	-2.05
CC(=O)NN	-1.58
CCc1nnc(N)o1	-0.3
CC(C)(C)c1nnc(N)o1	0.48
CCCCCCCC(=O)NN	1
CCC(=O)NN	-1
CC(C)c1nnc(N)o1	0.2
CCCCCC(=O)NN	0.48
CCCCc1nnc(N)o1	0.65
CCC(C)c1nnc(N)o1 (stereo not drawn)	0.62
CCCCCCC(=O)NN	0.97
CCCCCCCCC(=O)NN	0.5
CC(C)Cc1nnc(N)o1	0.4
CCCCCc1nnc(N)o1	1.1
